Data taken from the supplement of paper PMC7108870.

Experiments:
HEK293sieSTAT3(Y640F) [1] = experiment: drug sensitivity score (DSS), cytotoxicity CellTox Green (DSS (dimensionless)); higher = more cytotoxic; extreme values may be limits of the assay; conditions: 72 h; STAT3 variant: Y640F (constitutively active)
How it was run: (§1)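 HEK293 cells carrying a STAT3-dependent luciferase reporter and overexpressing wild-type or mutant STAT3 (20 μl at 100,000 cells/ml) were added to compounds acoustically pre-plated at 5 concentrations in 10-fold dilutions in 384-well plates. After 72 hours at 37°C and 5% CO2, CellTox Green fluorescence (485/520 nm) and then CellTiter-Glo luminescence were read on a PHERAstar FS. Values were normalised to negative and positive control wells, and a drug sensitivity score based on dose-response curve area was computed in Breeze. Each value comes from one representative of two experiments.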

HEK293sieSTAT3(wt) [2] = experiment: as above; conditions: 72 h; STAT3 variant: wild type
How it was run: as §1

HEK293sieSTAT3(Y640F) [3] = experiment: drug sensitivity score (DSS), viability CellTiter-Glo (DSS (dimensionless)); higher = more growth inhibition; extreme values may be limits of the assay; conditions: 72 h; STAT3 variant: Y640F (constitutively active)
How it was run: as §1

HEK293sieSTAT3(wt) [4] = experiment: as above; conditions: 72 h; STAT3 variant: wild type
How it was run: as §1

| Compound | drug sensitivity score (HEK293sieSTAT3(Y640F) [1]) | drug sensitivity score (HEK293sieSTAT3(wt) [2]) | drug sensitivity score (HEK293sieSTAT3(Y640F) [3]) | drug sensitivity score (HEK293sieSTAT3(wt) [4]) |
| --- | --- | --- | --- | --- |
| CCc1cc(Nc2nccc(-c3c(-c4ccc(OC)c(C(=O)Nc5c(F)cccc5F)c4)nc4ccccn34)n2)c(OC)cc1N1CCC(N2CCN(S(C)(=O)=O)CC2)CC1 (top concentration tested 10000 nM) | 0 | 0 | 10.9 | 9.73 |
| CCc1cncnc1N1CCN(Cc2nc3ccc(C(F)(F)F)cc3[nH]2)CC1 (top concentration tested 10000 nM) | 1.05 | 0.48 | 2.33 | 1.35 |
| CCn1c(-c2nonc2N)nc2cnc(Oc3cccc(NC(=O)c4ccc(OCCN5CCOCC5)cc4)c3)cc21 (top concentration tested 10000 nM) | 0.98 | 1.34 | 7.47 | 6.32 |
| CN(c1ccccc1CNc1nc(Nc2ccc3c(c2)CC(=O)N3)ncc1C(F)(F)F)S(C)(=O)=O (top concentration tested 10000 nM) | 1.46 | 6.16 | 10.1 | 11.2 |
| O=C(O)c1ccc(-c2c[nH]c3ncc(-c4ccccc4)cc23)cc1C1CCCC1 (top concentration tested 10000 nM) | 0 | 3.29 | 2.42 | 3.17 |
| C[C@@H]1CN(CC(=O)Nc2ccc3c(c2)Cc2cccc(-c4cc(=O)cc(N5CCOCC5)o4)c2S3)C[C@H](C)O1 (top concentration tested 25000 nM) | 5.17 | 8.78 | 8.24 | 9.16 |
| NCC(=O)Nc1ccc(-n2nc(C(F)(F)F)cc2-c2ccc3c(ccc4ccccc43)c2)cc1 (top concentration tested 25000 nM) | 5.9 | 7.25 | 13.5 | 16.3 |
| Cc1ccc2nc(CN(CCN(Cc3nc4ccc(C)cc4[nH]3)Cc3nc4ccc(C)cc4[nH]3)Cc3nc4ccc(C)cc4[nH]3)[nH]c2c1 (top concentration tested 50000 nM) | 3.51 | 5.64 | 4.22 | 3.52 |
| Cc1nn(C)c(COc2ccc(N3CCN(S(=O)(=O)N(C)C)CC3)cc2)c1-c1cccc2c(CCCOc3cccc4ccccc34)c(C(=O)O)n(CCN3CCOCC3)c12 (top concentration tested 50000 nM) | 7.51 | 7.01 | 9.56 | 5.26 |
| O=c1cc(N2CCOCC2)oc2c(-c3ccccc3)cccc12 (top concentration tested 100000 nM) | 2.63 | 5.12 | 10.6 | 11.8 |
| Oc1c2ccccc2c2c3c(cccc13)N=N2 (top concentration tested 100000 nM) | 0.97 | 2.91 | 7.42 | 6.18 |
| Cn1cc(C[C@@H](N)C(=O)O)c2ccccc21 [1-methyl-D-tryptophan] (top concentration tested 5000 nM) | 0 | 0 | 0 | 0 |
| COc1cc2c(cc1O)CC[C@@H]1[C@@H]2CC[C@]2(C)[C@@H](O)CC[C@@H]12 [2-methoxyestradiol] (top concentration tested 10000 nM) | 0 | 5.9 | 6.57 | 10.6 |
| CC/C(=C(\c1ccc(O)cc1)c1ccc(OCCN(C)C)cc1)c1ccccc1 [4-hydroxytamoxifen] (top concentration tested 10000 nM) | 6.81 | 7.36 | 6.34 | 7.39 |
| Nc1ncnc2c1nc(N)n2[C@@H]1O[C@H](CO)[C@@H](O)[C@H]1O [8-amino-adenosine] (top concentration tested 50000 nM) | 11.1 | 15.1 | 21.9 | 23.9 |
| Nc1ncnc2c1nc(Cl)n2[C@@H]1O[C@H](CO)[C@@H](O)[C@H]1O [8-chloro-adenosine] (top concentration tested 50000 nM) | 2.41 | 7.97 | 16.2 | 18.4 |
| CCCCC/C=C/C=C1/C(=O)C=C[C@@H]1C/C=C\CCCC(=O)O [15D-PGJ2] (top concentration tested 3000 nM) | 0 | 0 | 1.33 | 0 |
| COc1cc(O)c2c(c1)/C=C/C[C@H](O)[C@H](O)C(=O)/C=C\C[C@H](C)OC2=O [(5Z)-7-Oxozeaenol] (top concentration tested 10000 nM) | 2.58 | 6.67 | 3.74 | 4.51 |
| COc1ccc(S(=O)(=O)Nc2cccnc2Nc2ccc(O)cc2)cc1 [ABT-751] (top concentration tested 10000 nM) | 2.68 | 9.49 | 11.4 | 14.3 |
| Cc1ccccc1C(C(=O)NC1CCCCC1)N(C(=O)Cn1ccnc1C)c1cccc(F)c1 (stereo not given) [AGI-5198] (top concentration tested 10000 nM) | 0 | 0 | 0.76 | 1.02 |
| O=C(Nc1cccc(C(F)(F)F)c1)Nc1cc(S(=O)(=O)NC2CC2)ccc1-c1ccsc1 [AGI-6780] (top concentration tested 10000 nM) | 0 | 1.62 | 1.05 | 2.88 |
| COc1ccc2c(OCc3nnc4ccc(-c5ccccc5)nn34)ccnc2c1 [AMG-208] (top concentration tested 2500 nM) | 0.89 | 0.89 | 1.58 | 0.59 |
| CC(C)[C@@H](CS(=O)(=O)C(C)C)N1C(=O)[C@@](C)(CC(=O)O)C[C@H](c2cccc(Cl)c2)[C@H]1c1ccc(Cl)cc1 [AMG-232] (top concentration tested 1000 nM) | 0 | 0 | 0 | 0 |

| Compound | drug sensitivity score (HEK293sieSTAT3(Y640F) [1]) | drug sensitivity score (HEK293sieSTAT3(wt) [2]) | drug sensitivity score (HEK293sieSTAT3(Y640F) [3]) | drug sensitivity score (HEK293sieSTAT3(wt) [4]) |
| --- | --- | --- | --- | --- |
| Cc1csc(-c2nnc(Nc3ccc(Oc4ncccc4-c4ccnc(N)n4)cc3)c3ccccc23)c1 [AMG-900] (top concentration tested 1000 nM) | 0 | 0 | 4.35 | 3.01 |
| CC1CCC(n2c3cnccc3c3cnc(Nc4ccc5c(n4)CCN(C(=O)CO)C5)nc32)CC1 (stereo not given) [AMG-925] (top concentration tested 1000 nM) | 0 | 2.08 | 5.44 | 5.61 |
| COCC1(CO)C(=O)C2CCN1CC2 (stereo not given) [APR-246] (top concentration tested 10000 nM) | 0 | 0 | 0 | 1.99 |
| CC(C)[C@H](C(=O)Nc1ccc(C(=O)NO)cc1)c1ccccc1 [AR-42] (top concentration tested 10000 nM) | 5.41 | 8.7 | 14.4 | 16.5 |
| CNC(=O)c1ccc(N2C(=S)N(c3cnc(C#N)c(C(F)(F)F)c3)C(=O)C23CCC3)cc1F [ARN 509] (top concentration tested 10000 nM) | 0 | 0 | 2.68 | 2.33 |
| COc1cc(N2CCC(N3CCN(C)CC3)CC2)ccc1Nc1ncnc(Nc2ccccc2S(=O)(=O)C(C)C)n1 [ASP3026] (top concentration tested 10000 nM) | 0.7 | 4.8 | 7.3 | 8.01 |
| O=C(NC1CCNCC1)c1n[nH]cc1NC(=O)c1c(Cl)cccc1Cl [AT7519] (top concentration tested 10000 nM) | 4.11 | 12.2 | 16.7 | 18.6 |
| O=C(Nc1c[nH]nc1-c1nc2ccc(CN3CCOCC3)cc2[nH]1)NC1CC1 [AT9283] (top concentration tested 1000 nM) | 0 | 0.75 | 0.91 | 1.49 |
| CN[C@@H](C)C(=O)N[C@H]1CN(C(=O)CC(C)C)CC[C@H]2CC[C@@H](C(=O)NC(c3ccccc3)c3ccccc3)N2C1=O [AT-406] (top concentration tested 10000 nM) | 12.6 | 33.2 | 8.75 | 17.9 |
| CC[C@H](CC#N)OC(=O)N[C@@H](C)c1cccc(NC(=O)Nc2ccc(-c3cnco3)c(OC)c2)c1 [AVN944] (top concentration tested 10000 nM) | 1.07 | 6.87 | 17.1 | 20.7 |
| COc1cc(N2CCN(C)CC2)ccc1Nc1nccc(-c2cn(C)c3cnccc23)n1 [AZ191] (top concentration tested 10000 nM) | 1.68 | 2.77 | 6.19 | 4.19 |
| COc1cc(OC2CCN(C)CC2)ccc1Nc1ncc2c(n1)n(C1CCCC1)c(=O)n2C [AZ 3146] (top concentration tested 10000 nM) | 4.52 | 11.4 | 8.94 | 11.3 |
| CC(C)Oc1cc(Nc2nc(N[C@@H](C)c3ccc(F)cn3)ncc2Cl)n[nH]1 [AZ-23] (top concentration tested 1000 nM) | 0 | 1.27 | 3.11 | 6.5 |
| N[C@@H]1CCCN(c2c(/C=C3\SC(=O)NC3=O)cccc2-c2ccccc2)C1 [AZD1208] (top concentration tested 10000 nM) | 0 | 0 | 0 | 0 |
| Cc1cc(Nc2nc(N[C@@H](C)c3ncc(F)cn3)ncc2Cl)[nH]n1 [AZD1480] (top concentration tested 1000 nM) | 0.04 | 0.43 | 0 | 0.06 |
| CNC(=O)c1cccc(-c2ccc3c(N4CCOC[C@@H]4C)nc(N4CCOC[C@@H]4C)nc3n2)c1 [AZD2014] (top concentration tested 10000 nM) | 0 | 4.19 | 18 | 20.1 |
| COc1cc(CCc2cc(NC(=O)c3ccc(N4CC(C)NC(C)C4)cc3)n[nH]2)cc(OC)c1 (stereo not given) [AZD4547] (top concentration tested 1000 nM) | 0 | 0.01 | 1.23 | 0.43 |
| CN(C)C(=O)c1ccc(S(=O)(=O)c2ccc(NC(=O)[C@@](C)(O)C(F)(F)F)c(Cl)c2)cc1 [AZD7545] (top concentration tested 10000 nM) | 0 | 0 | 0.82 | 0.28 |
| NC(=O)Nc1cc(-c2cccc(F)c2)sc1C(=O)N[C@H]1CCCNC1 [AZD7762] (top concentration tested 1000 nM) | 4.24 | 7.16 | 14.9 | 16.8 |
| COc1ccc(-c2ccc3c(N4CCOC[C@@H]4C)nc(N4CCOC[C@@H]4C)nc3n2)cc1CO [AZD8055] (top concentration tested 10000 nM) | 0 | 3.7 | 25.7 | 26.8 |
| N#Cc1ccc2[nH]c(O)c(-c3ccc(CN4CCOCC4)cn3)c2c1 [AZD-1080] (top concentration tested 10000 nM) | 0 | 2.84 | 1.14 | 0.74 |
| Cc1ncc(-c2ccnc(Nc3ccc(S(C)(=O)=O)cc3)n2)n1C(C)C [AZD-5438] (top concentration tested 10000 nM) | 5.66 | 13.8 | 9.27 | 15.4 |
